{"source": "patent US20200000721A1", "about": "“AQUEOUS COMPOSITIONS AND ASSOCIATED CREAM FORMULATIONS” (MedReleaf Corp., priority 2018, published 2020)", "system": "microbial growth in the aqueous composition", "conditions": "0.09% in aqueous composition of Table 6", "experimental": "Microbiological testing was conducted according to USP <51> and USP (Antimicrobial Effectiveness Test) and USP <61> and <62> (Suitability Testing) in order to compare the effectiveness of 1) 0.09% potassium sorbate 2) 0.045% potassium sorbate and 0.045% Euxul™ 9010 and 3) 0.09% Euxul™ 9010 as an antimicrobial agent for prohibiting microbial growth in the aqueous composition described in Table 6.", "data": [{"smiles": "C/C=C/C=C/C(=O)[O-].[K+]", "note": "[potassium sorbate]", "values": [{"measurement": "effectiveness as antimicrobial agent (comparison)", "result": "as effective as Euxul™ 9010 and/or the combination of Euxul™ 9010 and potassium sorbate"}]}]}
